For data set [1], the target named is SPAK (Homo sapiens, UniProt Q9UEW8). As to the kind of experiment: Cellular inhibition of SPAK phosphorylation (pSer373). The class given is cell-based. The following applies: 50% inhibition of phosphorylation, n = 3, — = no inhibition. The text has this:
8. Cellular Activity Profile of Inhibitors with the Salicyclic Amide
A list of the compounds evaluated for their ability to inhibit phosphorylation of SPAK/NKCC1/KCC3 activity is illustrated in Table 1 below.

In data set [2] the test system is Coil BCAS mice. As to the kind of experiment: Coil BCAS model, delayed administration (NOR, MBP immunostaining, CBF, body weight). Type of data set: in vivo. Here is the method:
The efficacy of administration of ZT-1a starting at 4 wks post-BCAS surgery, when matter demyelination has reached its peak, was examined next. To test the reproducibility of these findings, in this pilot study, the Coil BCAS model was used by placing two microcoils (0.18 mm diameter) in each CCAs, a well-established model with CBF reduction and accompanied by ischemic lesion to white matter tracks, cortex, and hippocampus. Either vehicle DMSO (Veh, 2 ml/kg) or ZT-1a (5 mg/kg, every 72 h, i.p) was administered at 4-8 wks post-BCAS (i.e., during 28-56 days after coil-BCAS, every 3 days) (FIG. 7A). […] Then MBP expression levels were examined in these brains by immunostaining. […] Data are mean±SEM, n=5-8, *p<0.01 vs. sham, *p<0.05 vs. Veh.

Data set [3] deals with BCAS mice. As to the kind of experiment: Ex-vivo MRI DTI analysis of white matter lesion in BCAS mice. More on the design: species or system C57BL/6J mice. The settings on record: 4 wks post-BCAS, vs Veh-control. The text has this:
Clinically, most patients with intracranial atherosclerotic stenosis suffer from permanent stenosis without occlusion. Therefore, to mimic clinical atherosclerotic stenosis with permanent carotid artery (CCA) hypoperfusion, a modified BCAS model was adapted by ligating the CCA guided with a 30 gauge needle (0.31 mm diameter) in the right CCA and a 33 gauge needle (0.21 mm diameter) in the left CCA with a 4-0 silk suture. […] Next, changes of total NKCC1 (tNKCC1) protein expression were surveyed in different brain regions at 2 and 4 wks post-surgery by immunofluorescence staining (IF). […] Therefore, in the rest of the study, the investigation was focused on its association to white matter GFAP^+ astrogliosis and lesion of CC and external capsul (EC) tracks. […] However, by 2 wks post-BCAS surgery, tNKCC1 immunofluorescence intensity in the CC tracks was increased by ˜3 folds (p<0.05), and further elevated to ˜6 folds by 4 wks (p<0.05, arrowhead). Data are mean±SEM, n=4, *p<0.05, **p<0.01. […] The upregulation of tNKCC1 and GFAP protein expression in the CC is correlated, with a Pearson's correlation coefficient of r=0.9 (p<0.001). […] In contrast, no elevated tNKCC1 protein was detected either in Iba1^+ microglia/macrophages or in Olig2+ oligodendrocytes (OL) at 4 wks post-BCAS surgery (FIG. 1D). Without wishing to be bound by theory, these findings indicate that upregulation of NKCC1 expression and activity in reactive astrocytes may play a critical role in white matter inflammation, OL death, and demyelination after BCAS. Next, whether administration of SPAK inhibitor ZT-1a reduces WML and improves cognitive functions was examined. Starting at 14 days after BCAS surgery in mice (male), either vehicle DMSO (Veh, 2 ml/kg) or ZT-1a (5 mg/kg, every 72 h, i.p) was administered every 3 days, until they were sacrificed at day 35 post-BCAS (FIG. 3A). […] Motor functions are similar in all groups and average swimming speeds were not different in the Sham-, Veh- and ZT-1a-treated mice. Data are mean±SEM, n=6 (Sham and ZT-1a) or 5 (Veh), *p<0.01 vs. sham, *p<0.05 vs. Veh. After completion of the neurological function tests in the Veh-control and ZT-1a-treated BCAS cohort mice (as shown in FIG. 3A and FIG. 3B), ex-vivo brains were harvested for MRI DTI (diffusion tensor imaging) analysis of WML at 4 wks post-BCAS detected by DTI. The fractional anisotropy (FA), radial diffusivity (RD), and mean diffusivity (MD) of the CC and EC tracks were analyzed. Representative images of the DEC maps in FIG. 4A show severe loss of axonal fibers (arrowheads) in the CC and left EC of the Veh-control brains. […] These observations are consistent with changes of FA, RD, and MD values (FIG. 4B). […] Then MBP expression levels were measured in these brains by immunostaining. […]

Where two headings read alike, the source gives them in different places.

Regarding `Cc1cc(C(C#N)c2ccc(Cl)cc2)c(Cl)cc1NC(=O)c1cc(Cl)ccc1O` (stereo not shown) [1a (ZT-1a)], the IC50 in data set [1] (Hypotonic conditions, read-out: SPAK pSer373 (μM) hypo) is 3 µM. For the same compound, the IC50 in data set [1] (Isotonic conditions, read-out: SPAK pSer373 (μM) Iso) came to 1 µM. Moreover, the “memory function in novel objective recognition test (NOR)” value in data set [2] (5 mg/kg i.p. every 72 h at 4-8 wks post-BCAS) is “no memory function impairment”. In data set [2] (5 mg/kg i.p. every 72 h at 4-8 wks post-BCAS, data not shown), the body weight changes entry was “No body weight changes”. In addition, in data set [2] (delayed administration 4-8 wks post-BCAS, p<0.05), the “MBP levels in CC and EC tracts” value is “significantly increased”. Moreover, in data set [2] (delayed treatment for four weeks, by 8 wks post-BCAS), the “cerebral blood flow (CBF)” value was “significantly improved”. Besides, the “integrity of the CC and EC tracks (DEC maps)” value in data set [3] (5 mg/kg i.p. every 72 h, both hemispheres) was “better-preserved integrity”. In data set [3] (p<0.05), the “fractional anisotropy (FA) values” is reported as “significantly higher”, the “mean diffusivity (MD) values” is reported as “lower” and the “radial diffusivity (RD) values” is “lower”.

The values above are taken from patent US11925611B2, “Use of ZT-1A and analogs thereof to prevent and/or treat neurodegenerative and neurocognitive disorders” (United States Government as Represented by the Department …, priority 2021, dated 2024).
